Patent US6737383B1, “Herbicidal oxadiazolidines” (priority 1999, dated 2004)

Key:
corn = test: Test B pre/postemergence corn; type: in vivo, Zea mays
In short: (§1)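 Test chemicals in a non-phytotoxic solvent mixture with surfactant were sprayed preemergence onto planted seeds and postemergence onto plants 2 to 18 cm tall (1- to 4-leaf stage). After twelve to sixteen days in a greenhouse, injury was visually rated against untreated controls from 0 (no effect) to 10 (complete control).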

giant foxtail = test: Test B pre/postemergence giant foxtail; type: in vivo, Setaria faberii
In short: as §1

purple nutsedge = test: Test B pre/postemergence purple nutsedge; type: in vivo, Cyperus rotundus
In short: as §1

smallflower flatsedge = test: Test B flood test smallflower flatsedge; type: in vivo, Cyperus difformis
In short: (§2)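 Read-out is a visual response score from 0 (no effect) to 10 (complete control), assigned by comparison with untreated controls. Treatment was applied at the 2-leaf stage, and plants stayed in the greenhouse for twelve to sixteen days before scoring.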

velvetleaf = test: Test B pre/postemergence velvetleaf; type: in vivo, Abutilon theophrasti
In short: as §1

cocklebur = test: Test B pre/postemergence cocklebur; type: in vivo, Xanthium strumarium
In short: as §1

wheat = test: Test B pre/postemergence wheat; type: in vivo, Triticum aestivum
In short: as §1

soybean = test: Test B pre/postemergence soybean; type: in vivo, Glycine max
In short: as §1

surinam grass = test: Test B pre/postemergence surinam grass; type: in vivo, Brachiaria decumbens
In short: as §1

bamyardgrass = test: Test B flood test barnyardgrass; type: in vivo, Echinochloa crus-galli
In short: as §2

bedstraw = test: Test B pre/postemergence bedstraw; type: in vivo, Galium aparine
In short: as §1

duck salad = test: Test B flood test duck salad; type: in vivo, Heteranthera limosa
In short: as §2

sugar beet = test: Test B pre/postemergence sugar beet; type: in vivo, Beta vulgaris
In short: as §1

rice = test: Test B flood test rice; type: in vivo, Oryza sativa
In short: as §2

rape = test: Test B pre/postemergence rape; type: in vivo, Brassica napus
In short: as §1

blackgrass = test: Test B pre/postemergence blackgrass; type: in vivo, Alopecurus myosuroides
In short: as §1

crabgrass = test: Test B pre/postemergence crabgrass; type: in vivo, Digitaria sanguinalis
In short: as §1

[1] = Preemergence, Rate 31 g/ha, visual rating, scale 0 to 10 (0 no effect, 10 complete control)
[2] = Preemergence, Rate 62 g/ha, scale of 0 to 10 where 0 is no effect and 10 is complete control
[3] = Preemergence, Rate 125 g/ha, 0 is no effect, 10 is complete control
[4] = Preemergence, Rate 250 g/ha, scale 0 to 10, 0 is no effect, 10 is complete control
[5] = Rate 31 g/ha, Postemergence, scale 0 to 10
[6] = Rate 62 g/ha, Postemergence, scale of 0 to 10 where 0 is no effect and 10 is complete control
[7] = Rate 125 g/ha, Postemergence, scale 0 to 10
[8] = Rate 31 g/ha, Pre-emergence section (flood test species), scale 0 to 10
[9] = Rate 62 g/ha, headed Pre-emergence (flood test species), scale 0 to 10 (0 no effect, 10 complete control)
[10] = Rate 125 g/ha, Pre-emergence, flood test species, scale 0 to 10 where 0 is no effect and 10 is complete control
[11] = Rate 250 g/ha, Pre-emergence, flood-test species, scale 0 to 10, 0 is no effect, 10 is complete control

Compound: Cc1ccccc1-n1c(=O)on(C(=O)N(c2ccc(F)cc2)C2CCC2)c1=O [Compound 200]
- Corn plant response rating (corn; [1]): 0
- Corn plant response rating (corn; [2]): 0
- Corn plant response rating (0 to 10 scale) (corn; [3]): 0
- Corn plant response rating (corn; [4]): 0
- Corn plant response rating (corn; [5]): 0
- Corn plant response rating (corn; [6]): 0
- Corn plant response rating (corn; [7]): 0
- Plant response rating (0 to 10; 0 is no effect, 10 is complete control), Corn (corn; Rate 250 g/ha, Postemergence): 0
- Giant foxtail plant response rating (giant foxtail; [1]): 0
- Giant foxtail plant response rating (giant foxtail; [2]): 0
- Giant foxtail plant response rating (0 to 10 scale) (giant foxtail; [3]): 4
- Giant foxtail plant response rating (giant foxtail; [4]): 6
- Giant foxtail plant response rating (giant foxtail; [5]): 0
- Giant foxtail plant response rating (giant foxtail; [6]): 0
- Giant foxtail plant response rating (giant foxtail; [7]): 0
- Plant response rating (0 to 10; 0 is no effect, 10 is complete control), Giant foxtail (giant foxtail; Rate 250 g/ha, Postemergence): 0
- Nutsedge plant response rating (purple nutsedge; [1]): 0
- Nutsedge plant response rating (purple nutsedge; [2]): 0
- Nutsedge plant response rating (0 to 10 scale) (purple nutsedge; [3]): 0
- Nutsedge plant response rating (purple nutsedge; [5]): 0
- Nutsedge plant response rating (purple nutsedge; [6]): 0
- Nutsedge plant response rating (purple nutsedge; [7]): 0
- Plant response rating (0 to 10; 0 is no effect, 10 is complete control), Nutsedge (purple nutsedge; Rate 250 g/ha, Postemergence): 0
- S. Flatsedge plant response rating (smallflower flatsedge; [8]): 0
- S. Flatsedge plant response rating (smallflower flatsedge; [9]): 0
- S. Flatsedge plant response rating (smallflower flatsedge; [10]): 0
- S. Flatsedge plant response rating (smallflower flatsedge; [11]): 0
- Velvetleaf plant response rating (velvetleaf; [1]): 0
- Velvetleaf plant response rating (velvetleaf; [2]): 0
- Velvetleaf plant response rating (velvetleaf; [4]): 0
- Velvetleaf plant response rating (velvetleaf; [6]): 0
- Velvetleaf plant response rating (velvetleaf; [7]): 0
- Plant response rating (0 to 10; 0 is no effect, 10 is complete control), Velvetleaf (velvetleaf; Rate 250 g/ha, Postemergence): 1
- Cocklebur plant response rating (cocklebur; [1]): 0
- Cocklebur plant response rating (cocklebur; [2]): 0
- Cocklebur plant response rating (0 to 10 scale) (cocklebur; [3]): 0
- Cocklebur plant response rating (cocklebur; [4]): 0
- Cocklebur plant response rating (cocklebur; [5]): 0
- Cocklebur plant response rating (cocklebur; [6]): 0
- Cocklebur plant response rating (cocklebur; [7]): 0
- Plant response rating (0 to 10; 0 is no effect, 10 is complete control), Cocklebur (cocklebur; Rate 250 g/ha, Postemergence): 0
- Wheat plant response rating (wheat; [1]): 0
- Wheat plant response rating (wheat; [2]): 0
- Wheat plant response rating (wheat; [4]): 0
- Wheat plant response rating (wheat; [6]): 0
- Wheat plant response rating (wheat; [7]): 0
- Plant response rating (0 to 10; 0 is no effect, 10 is complete control), Wheat (wheat; Rate 250 g/ha, Postemergence): 0
- Soybean plant response rating (soybean; [1]): 0
- Soybean plant response rating (soybean; [2]): 0
- Soybean plant response rating (0 to 10 scale) (soybean; [3]): 0
- Soybean plant response rating (soybean; [4]): 0
- Soybean plant response rating (soybean; [6]): 2
- Soybean plant response rating (soybean; [7]): 2
- Plant response rating (0 to 10; 0 is no effect, 10 is complete control), Soybean (soybean; Rate 250 g/ha, Postemergence): 2
- B. signalgrass plant response rating (surinam grass; [1]): 0
- B. signalgrass plant response rating (surinam grass; [2]): 0
- B. signalgrass plant response rating (0 to 10 scale) (surinam grass; [3]): 0
- B. signalgrass plant response rating (surinam grass; [4]): 0
- B. signalgrass plant response rating (surinam grass; [5]): 0
- B. signalgrass plant response rating (surinam grass; [6]): 0
- B. signalgrass plant response rating (surinam grass; Rate 125 g/ha, Postemergence, scale 0 (no effect) to 10 (complete control)): 0
- Plant response rating, B. signalgrass (surinam grass; Rate 250 g/ha, Postemergence, scale 0 to 10, 0 is no effect, 10 is complete control): 0
- Barnyardgrass plant response rating (bamyardgrass; [8]): 0
- Barnyardgrass plant response rating (bamyardgrass; [9]): 0
- Barnyardgrass plant response rating (bamyardgrass; [10]): 0
- Barnyardgrass plant response rating (bamyardgrass; [11]): 0
- Bedstraw plant response rating (bedstraw; [1]): 0
- Bedstraw plant response rating (bedstraw; [4]): 0
- Bedstraw plant response rating (bedstraw; [5]): 0
- Bedstraw plant response rating (bedstraw; [6]): 0
- Bedstraw plant response rating (bedstraw; [7]): 0
- Plant response rating (0 to 10; 0 is no effect, 10 is complete control), Bedstraw (bedstraw; Rate 250 g/ha, Postemergence): 0
- Ducksalad plant response rating (duck salad; [8]): 0
- Ducksalad plant response rating (duck salad; [9]): 0
- Ducksalad plant response rating (duck salad; [10]): 0
- Ducksalad plant response rating (duck salad; [11]): 0
- Sugarbeets plant response rating (sugar beet; [1]): 0
- Sugarbeets plant response rating (sugar beet; [2]): 0
- Sugarbeets plant response rating (0 to 10 scale) (sugar beet; [3]): 0
- Sugarbeets plant response rating (sugar beet; [4]): 0
- Sugarbeets plant response rating (sugar beet; [6]): 0
- Sugarbeets plant response rating (sugar beet; [7]): 0
- Plant response rating (0 to 10; 0 is no effect, 10 is complete control), Sugarbeets (sugar beet; Rate 250 g/ha, Postemergence): 0
- Rice plant response rating (rice; [8]): 0
- Rice plant response rating (rice; [9]): 0
- Rice plant response rating (rice; [10]): 0
- Rice plant response rating (rice; [11]): 0
- Rape plant response rating (rape; [1]): 0
- Rape plant response rating (rape; [2]): 0
- Rape plant response rating (0 to 10 scale) (rape; [3]): 0
- Rape plant response rating (rape; [4]): 0
- Rape plant response rating (rape; [5]): 0
- Rape plant response rating (rape; [6]): 0
- Rape plant response rating (rape; [7]): 0
- Plant response rating (0 to 10; 0 is no effect, 10 is complete control), Rape (rape; Rate 250 g/ha, Postemergence): 0
- Blackgrass plant response rating (blackgrass; [1]): 0
- Blackgrass plant response rating (blackgrass; [2]): 0
- Blackgrass plant response rating (0 to 10 scale) (blackgrass; [3]): 5
- Blackgrass plant response rating (blackgrass; [4]): 7
- Blackgrass plant response rating (blackgrass; [5]): 0
- Blackgrass plant response rating (blackgrass; [6]): 0
- Blackgrass plant response rating (blackgrass; [7]): 0
- Plant response rating (0 to 10; 0 is no effect, 10 is complete control), Blackgrass (blackgrass; Rate 250 g/ha, Postemergence): 0
- Crabgrass plant response rating (crabgrass; [1]): 0
- Crabgrass plant response rating (crabgrass; [2]): 0
- Crabgrass plant response rating (0 to 10 scale) (crabgrass; [3]): 2
- Crabgrass plant response rating (crabgrass; [4]): 6
- Crabgrass plant response rating (crabgrass; [5]): 0
- Crabgrass plant response rating (crabgrass; [6]): 0
- Crabgrass plant response rating (crabgrass; [7]): 1
- Plant response rating (0 to 10; 0 is no effect, 10 is complete control), Crabgrass (crabgrass; Rate 250 g/ha, Postemergence): 2
